Laboratory results reported in ChEMBL document CHEMBL5608241, “Discovery of Novel Non-nucleoside DOT1LR231Q Inhibitors with Improved Pharmacokinetic Properties and Anti-lung Cancer Efficacy” (J Med Chem, 2024).

Key:
[1] = tested on: NCI-H460; test: Inhibition of colony formation in human NCI-H460 cells exogenously expressing DOT1L R231Q mutant (unknown origin) (1 to 416 residues) at 5 uM incubated for 7 to 14 days by crystal violet staining based light microscopic analysis relative to control; format: functional; conditions: time 7-14 day
[2] = AUC (0 to t) in male Sprague-Dawley rat at 20 mg/kg, iv measured after 24 hrs by LC-MS/MS analysis; format: ADME, organism-based; conditions: in vivo

AUC(0-t) at 24 h [2]: 5980 ng·h/mL
Structure (SMILES): CC(C)(C)c1ccc(NC(=O)NCCCN(CCCN2CCOCC2)CC2(O)CCN(c3nc(Cl)nc4sccc34)C2)cc1 (configuration not stated)
inhibition at 5 µM [1]: 72.8%
